{
  "source": "paper PMC7616177",
  "about": "“From structure to clinic: Design of a muscarinic M1 receptor agonist with the potential to treat Alzheimer’s disease” (Cell, 2021)",
  "key": {"[1]": {"system": "Wistar rats", "experiment": "Novel object recognition", "format": "in vivo, rat", "experimental": "Male adult Wistar rats (Harlan, UK; approximately 11 weeks of age) were handled for two days prior to the experiment. […] Donepezil (0.1 mg/kg) and galanthamine (3 mg/kg) were administered via intraperitoneal injection (in saline) 60 min prior to training. Following a 10-min habituation period, each rat was placed into the test arena comprising an open-field arena in the presence of two identical plastic shapes and allowed to explore for 5 min. The rat was then returned to its home cage. After 24 hours, the rat was returned to the test arena in the presence of one familiar object, and one novel object. The time exploring each object was recorded using image analysis software (Ethovision XT, Noldus, UK)."}, "[2]": {"system": "dogs", "experiment": "Safety pharmacology and toxicology clinical signs, dog"}, "[3]": {"molecular_target": "T1, rat M1-receptor (Rattus norvegicus, UniProt P08482)", "T1 construct": "expressed in transfected cells; host or cells: not described", "T1 sequence (P08482 whole entry)": "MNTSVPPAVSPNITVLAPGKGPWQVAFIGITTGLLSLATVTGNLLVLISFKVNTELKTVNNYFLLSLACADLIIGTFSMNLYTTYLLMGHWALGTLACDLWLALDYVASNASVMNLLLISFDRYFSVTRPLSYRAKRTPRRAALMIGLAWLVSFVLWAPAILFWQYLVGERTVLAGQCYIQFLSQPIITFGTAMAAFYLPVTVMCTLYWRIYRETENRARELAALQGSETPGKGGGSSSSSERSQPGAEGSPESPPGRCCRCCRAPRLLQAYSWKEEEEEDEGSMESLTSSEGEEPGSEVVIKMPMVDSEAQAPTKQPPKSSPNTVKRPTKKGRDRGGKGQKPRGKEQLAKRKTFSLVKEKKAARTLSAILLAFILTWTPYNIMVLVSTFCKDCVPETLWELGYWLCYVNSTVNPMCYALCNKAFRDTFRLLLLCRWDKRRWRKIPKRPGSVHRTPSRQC", "experiment": "Recombinant rat M1-receptor functional assay", "format": "cell-based"}, "[4]": {"molecular_target": "T2, M4-receptor (Homo sapiens, UniProt P08173)", "T2 sequence (P08173 1-479)": "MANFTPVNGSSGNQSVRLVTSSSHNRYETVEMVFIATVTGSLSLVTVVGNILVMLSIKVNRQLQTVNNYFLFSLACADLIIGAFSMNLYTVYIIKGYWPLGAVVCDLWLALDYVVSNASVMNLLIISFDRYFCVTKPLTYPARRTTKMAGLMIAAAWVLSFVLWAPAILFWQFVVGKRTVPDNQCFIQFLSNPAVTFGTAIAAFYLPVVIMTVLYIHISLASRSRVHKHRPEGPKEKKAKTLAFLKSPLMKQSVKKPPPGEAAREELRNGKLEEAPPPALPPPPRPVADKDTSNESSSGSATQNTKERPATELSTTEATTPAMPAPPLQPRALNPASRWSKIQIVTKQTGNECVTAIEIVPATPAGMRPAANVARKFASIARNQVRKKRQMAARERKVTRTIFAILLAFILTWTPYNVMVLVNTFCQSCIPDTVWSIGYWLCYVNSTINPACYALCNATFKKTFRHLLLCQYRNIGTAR", "experiment": "[3H]-NMS equilibrium radioligand binding, M4", "experimental": "Non-specific binding (NSB) was determined in the presence of 1 μM atropine). Reactions were terminated by rapid filtration onto GF/B filter paper (Whatman, Maidstone, UK) and three washes with 3 mL ice-cold 0.9% NaCl using a Brandel harvester (M-24TI; Brandel, Fort Lauderdale, FL). Membrane bound radioactivity was determined by liquid scintillation (Ultima Gold; PerkinElmer) counting.\nData was analyzed using PRISM (GraphPad). For saturation binding, non-specific and total binding data were analyzed to a one site binding model. DPM was converted to fmol/mg to compare across constructs. […] […] The Cheng Prusoff equation was used to estimate pKi ([Cheng and Prusoff, 1973])."}, "[5]": {"system": "CA1 pyramidal cells", "experiment": "Electrophysiological recordings in rat hippocampal slices", "format": "cell-based", "details": "read-out: Spontaneous firing rate of CA1 pyramidal cells EC50"}, "[6]": {"system": "healthy volunteers", "experiment": "First-time-in-human single ascending dose safety", "format": "in vivo", "from_the_text": "(§1) HTL9936 was progressed into a randomized, double blind, placebo controlled, first time-in-human (FTIH) ascending single and multiple oral dose study in healthy young adult male volunteers and healthy elderly male and female volunteers. (ClinicalTrials.gov Identifier: NCT02291783).\n(§2) The required amount of sterile solution was subsequently injected into the infusion bag containing sodium chloride 0.9%w/v infusion fluid to provide the required dose for IV administration."}, "[7]": {"experiment": "First-time-in-human single ascending dose safety", "format": "in vivo", "details": "plasma, oral, 175 mg; human SAD; read-out: Cmax at which cholinergic side effects were recorded", "from_the_text": "as §1, §2"}, "[8]": {"molecular_target": "T3, human M1 receptor (Homo sapiens, UniProt P11229)", "T3 construct": "expressed in transfected cells", "T3 sequence (P11229 1-460)": "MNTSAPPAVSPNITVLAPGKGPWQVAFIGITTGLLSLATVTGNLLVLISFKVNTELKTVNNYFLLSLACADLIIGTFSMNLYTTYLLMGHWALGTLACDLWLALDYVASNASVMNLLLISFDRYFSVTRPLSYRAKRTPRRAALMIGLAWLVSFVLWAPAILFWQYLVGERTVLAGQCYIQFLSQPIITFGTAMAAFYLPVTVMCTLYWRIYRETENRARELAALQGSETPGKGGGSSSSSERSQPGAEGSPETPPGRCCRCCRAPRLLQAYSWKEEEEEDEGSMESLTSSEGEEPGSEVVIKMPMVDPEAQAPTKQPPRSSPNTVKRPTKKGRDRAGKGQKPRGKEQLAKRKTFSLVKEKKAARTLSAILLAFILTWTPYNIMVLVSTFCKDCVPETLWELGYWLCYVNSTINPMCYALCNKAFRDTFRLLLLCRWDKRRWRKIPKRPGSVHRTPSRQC", "experiment": "pERK1/2 assay in CHO cells overexpressing human M1-receptor", "format": "cell-based"}, "[9]": {"system": "non-human primates", "experiment": "Safety clinical signs, non-human primates", "format": "in vivo"}, "[10]": {"molecular_target": "T3, human M1 receptor", "experiment": "Label-free dynamic mass redistribution in CHO cells overexpressing human M1-receptor", "format": "cell-based"}, "[11]": {"experiment": "Human plasma and CSF pharmacokinetics after single oral dose", "format": "in vivo", "details": "single 54 mg oral dose"}, "[12]": {"system": "C57BL/6J mice", "experiment": "Scopolamine-induced deficit in contextual fear conditioning", "format": "in vivo, mouse", "details": "mice, 10, 30 or 100 mg/kg i.p. with scopolamine 1.5 mg/kg i.p.", "experimental": "C57BL/6J male mice (aged 8−12 weeks) were acclimatized to the behavioral testing suite at least 2 hours prior to the test. […] Mice were placed in the conditioning chamber (ANY-maze Fear Conditioning System; Stoelting, Dublin, Ireland); after a 2-min adaptation period, they received three tone/foot shock pairings where the foot shock (un-conditioned stimulus; 2 s; 0.4 mA) always co-terminated with a tone (conditioned stimulus; 2.8 kH; 85 dB; 30 s). The conditioned stimulus−unconditioned stimulus pairings were separated by 1-min intervals. After the mice completed training, they remained in the conditioning chamber for 1 min and were then returned to their home cages. The next day, the mice were placed back in the conditioning chamber, and time spent immobile was recorded for 3 min to assess context-dependent learning. Data were analyzed using ANY-maze software (Stoelting)."}},
  "note": "pEC50, pKi: −log10 of the molar value. Like-named read-outs stand apart in the source and are kept apart here.",
  "data": [
    {"smiles": "CCOC(=O)N1CCC[C@H](N2CCC(C(=O)NC3(C)CCC3)CC2)CC1", "note": "[HTL9936, ethyl (S)-4-(4-((1-methylcyclobutyl)carbamoyl)piperidin-1-yl)azepane-1-carboxylate]", "values": [
      {"measurement": "Effective dose", "setting": "[1]; rat novel object recognition, p.o.", "value": 10, "unit": "mg/kg"},
      {"measurement": "Effect compared with positive controls donepezil and galantamine", "setting": "[1]; rat, 10 mg/kg p.o.", "value": "significantly better than the positive controls"},
      {"measurement": "Cu,pl above which clinical signs were observed", "setting": "[2]", "value": 283, "unit": "nM"},
      {"measurement": "Plasma exposure above which salivation, vomiting, lacrimation were observed", "setting": "[2]", "value": "exceeded 157 ng/mL"},
      {"measurement": "Agonist behaviour at the rat receptor", "setting": "[3]", "value": "partial agonist"},
      {"measurement": "pKi", "setting": "[4]", "value": 5.40},
      {"measurement": "pEC50", "setting": "[5]", "value": 5.80},
      {"measurement": "Subjects with mild cholinergic responses (salivation, sweating, blood pressure/heart rate changes)", "setting": "[6]; human SAD, 175 mg cohort", "value": "3/5"},
      {"measurement": "Serious adverse events leading to withdrawal", "setting": "[6]; human SAD, 1−100mg oral", "value": "no serious adverse events"},
      {"measurement": "Margin of 242 ng/mL over plasma minimal effective concentration in aged beagle DNMP", "setting": "[6]; human vs dog 58 ng/mL", "value": "about 5 ×"},
      {"measurement": "Estimated unbound brain exposure at plasma Cmax of 242 ng/mL", "setting": "[6]; human, from CSF to plasma ratios 1 to 3 h", "value": "72 to 259", "unit": "nM"},
      {"measurement": "Cmax", "setting": "[7]", "value": 242, "unit": "ng/mL"},
      {"measurement": "pEC50", "setting": "[8]", "value": 7.49},
      {"measurement": "Cu,pl without cholinergic clinical signs", "setting": "[9]", "value": 991, "unit": "nM"},
      {"measurement": "Plasma exposure without cholinergic clinical signs", "setting": "[9]", "value": "≤ 557", "unit": "ng/mL"},
      {"measurement": "pEC50", "setting": "[10]", "value": 7.10},
      {"measurement": "Tmax", "setting": "[11]; CSF, read-out: Time of maximum concentration in CSF", "value": "2 to 3", "unit": "h"},
      {"measurement": "Tmax", "setting": "[11]; plasma, read-out: Plasma tmax", "value": "~0.5", "unit": "h"},
      {"measurement": "Effect on scopolamine-induced fear learning deficit", "setting": "[12]", "value": "dose-dependent restoration of learning and memory responses"}
    ]}
  ]
}
